{
  "source": "patent US20250283049A1",
  "about": "“AGENT FOR CULTURING ORGANOID IN ABSENCE OF EXTRACELLULAR MATRIX” (KEIO UNIVERSITY, priority 2022, published 2025)",
  "key": {"[1]": {"system": "AXIN2 gene", "test": "AXIN2 gene expression by quantitative real-time PCR in human small intestine-derived organoids", "format": "cell-based", "settings": "absence of Matrigel; Lats-IN 10 μM", "experimental": "Human small intestine-derived organoids and human large intestine-derived organoids were cultured in the absence or presence of Matrigel (registered trademark) and in the absence or presence of Lats-IN (final concentration: 10 μM), and the expression level of the AXIN2 gene, whose expression is regulated by Wnt, was examined by quantitative real-time PCR.\nFIG. 16 presents graphs showing the results of quantitative real-time PCR."}, "[2]": {"system": "immunodeficient mouse (NOG mouse) colon", "test": "Orthotopic xenotransplantation of organoids established in absence of Matrigel", "format": "in vivo", "settings": "organoids established in absence of Matrigel and presence of TRULI, 1×10^7 cells", "text": "The human colon-derived organoids established in the absence of Matrigel (registered trademark) and in the presence of TRULI in Experimental Example 22 were orthotopically xenotransplanted into an immunodeficient mouse (NOG mouse) to examine whether they would engraft.\nFIG. 31 is a schematic view explaining an overview of this experimental example. The human colon-derived organoids established in the absence of Matrigel (registered trademark) and in the presence of TRULI were electroporated with a green fluorescent protein (GFP) expression vector to obtain GFP-labeled human colon-derived organoids.\nSubsequently, the GFP-labeled human colon-derived organoids were dissociated into single cells and then pre-cultured for 4 days in a medium supplemented with 2% Matrigel (registered trademark) or 2% collagen gel (50% type IA, 50% type IC). […]\nSubsequently, the total cell number of the pre-cultured GFP-labeled human colon-derived organoids was counted, and the cells were suspended in Advanced DMEM/F12 medium supplemented with 10% (vol/vol) Matrigel (registered trademark) or type IA collagen. […]"}, "[3]": {"system": "human liver cell organoids", "test": "Culturing liver cell organoids in absence of Matrigel; number of viable cells (CellTiter-Glo 3D)", "format": "cell-based", "settings": "concentration not given", "experimental": "Human liver cell organoids, established from primary human liver cells, were supplemented with TrypLE Express (Thermo Fisher Scientific) and incubated at 37° C. for 5 minutes to dissociate them into single cells.\nThe cells were then collected and suspended in proliferation medium separately supplemented with 2, 5, 10, 20, or 50 μM TDI-011536 (CAS No. 2687970-96-1), and […] seeded into an ultra-low attachment 96-well plate at 2,000 cells/well. The preferred seeding density is 2,000 to 4,000 cells/well. In addition, cells in proliferation medium supplemented with no TDI-011536 were prepared as a control.\nThe proliferation medium was a medium consisting of a basal medium (Advanced DMEM/F-12 medium, 10 mM HEPES, 2 mM GlutaMAX, 100 U penicillin, 100 μg/mL streptomycin) supplemented with 10% afamin-Wnt-3A conditioned medium, 2% R-spondin 1 conditioned medium, 2% Noggin conditioned medium, and 20 ng/ml Oncostatin M.\nOn day 6 after seeding, the number of viable cells in the human liver cell organoids was measured using a commercially available kit (product name “CellTiter-Glo 3D,” Promega Corporation)."}, "[4]": {"system": "human large intestine-derived organoids", "test": "Immunostaining for localization of YAP and Ki67", "format": "cell-based", "settings": "10 μM Lats-IN; in both presence and absence of Matrigel; approximately 10% without Lats-IN", "experimental": "Human small intestine-derived organoids and human large intestine-derived organoids were cultured in the absence and presence of Matrigel (registered trademark) and in the absence and presence of a LATS kinase inhibitor (final concentration: 10 μM) in the same manner as in Experimental Example 2. Subsequently, immunostaining was performed to confirm the localization of YAP. In addition, Ki67, a marker for cell proliferation, was detected to confirm proliferating cells.\nThe leftmost column of FIG. 6 presents photographs showing the results of immunostaining of the human large intestine-derived organoids cultured in the presence of Matrigel (registered trademark) and in the absence of Lats-IN (Ctrl). […]\nFIG. 7 is a graph summarizing the results of FIGS. 5 and 6. As a result, in both the presence and absence of Matrigel (registered trademark), in the absence of Lats-IN, YAP was localized in the cytoplasm, and when the number of Ki67-positive cells, which indicates cell proliferation, was counted, the percentage of Ki67-positive cells was approximately 10% of the total cells. In contrast, in both the presence and absence of Matrigel (registered trademark), in the presence of Lats-IN, the number of cells in which YAP was localized in the nucleus was counted. […]"}},
  "data": [
    {"smiles": "O=C(N=c1sccn1Cc1ccccc1)c1c[nH]c2ncccc12", "note": "[Lats-IN]", "values": [
      {"measurement": "expression level of AXIN2", "setting": "[1]", "value": "increased to a level equivalent to that in the presence of Matrigel"},
      {"measurement": "engraftment of human colon-derived organoids established with TRULI", "setting": "[2]", "value": "could engraft"},
      {"measurement": "increase in number of viable cells", "setting": "[3]", "value": "about three-fold"},
      {"measurement": "percentage of Ki67-positive cells", "setting": "[4]", "value": "≥ 50 % of the total cells"}
    ]}
  ]
}
